Data taken from the NIST ThermoML archive (doi:10.1021/je900691n).

Test: xn = mol fraction of the nth substance listed
Settings: Liquid, Pycnometric method

COC(=O)OC [dimethyl carbonate] + O=C=O
Settings	mass density [kg/m3]
323.15 K, 9620 kPa, x1 = 0.0242	495
323.15 K, 9710 kPa, x1 = 0.0242	509
323.15 K, 9740 kPa, x1 = 0.118	852
323.15 K, 9750 kPa, x1 = 0.0481	666
323.15 K, 9760 kPa, x1 = 0.086	792
323.15 K, 9760 kPa, x1 = 0.1484	883
323.15 K, 9800 kPa, x1 = 0.0242	523
323.15 K, 9900 kPa, x1 = 0.0242	536
323.15 K, 9930 kPa, x1 = 0.0242	541
323.15 K, 10010 kPa, x1 = 0.0481	683
323.15 K, 10220 kPa, x1 = 0.118	859
323.15 K, 10280 kPa, x1 = 0.086	803
323.15 K, 10280 kPa, x1 = 0.1484	888
323.15 K, 10350 kPa, x1 = 0.0481	700
323.15 K, 10740 kPa, x1 = 0.086	813
323.15 K, 10740 kPa, x1 = 0.118	866
323.15 K, 10740 kPa, x1 = 0.1484	893
323.15 K, 10780 kPa, x1 = 0.0481	719
323.15 K, 11230 kPa, x1 = 0.086	822
323.15 K, 11230 kPa, x1 = 0.118	872
323.15 K, 11230 kPa, x1 = 0.1484	897
323.15 K, 11360 kPa, x1 = 0.0481	739
323.15 K, 11670 kPa, x1 = 0.086	829
323.15 K, 11750 kPa, x1 = 0.118	878
323.15 K, 11760 kPa, x1 = 0.1484	901
323.15 K, 11870 kPa, x1 = 0.0481	754
323.15 K, 12240 kPa, x1 = 0.1484	905
323.15 K, 12270 kPa, x1 = 0.118	883
323.15 K, 12310 kPa, x1 = 0.086	839
323.15 K, 12390 kPa, x1 = 0.0481	768
323.15 K, 12740 kPa, x1 = 0.086	844
323.15 K, 12750 kPa, x1 = 0.118	888
323.15 K, 12770 kPa, x1 = 0.1484	910
323.15 K, 12920 kPa, x1 = 0.0481	780
323.15 K, 13190 kPa, x1 = 0.086	851
323.15 K, 13260 kPa, x1 = 0.1484	913
323.15 K, 13310 kPa, x1 = 0.118	894
323.15 K, 13550 kPa, x1 = 0.0481	792
323.15 K, 13740 kPa, x1 = 0.086	857
323.15 K, 13760 kPa, x1 = 0.1484	918
323.15 K, 13830 kPa, x1 = 0.118	898
323.15 K, 14230 kPa, x1 = 0.086	863
323.15 K, 14270 kPa, x1 = 0.118	902
323.15 K, 14330 kPa, x1 = 0.1484	922
323.15 K, 14730 kPa, x1 = 0.086	868
323.15 K, 14750 kPa, x1 = 0.118	907
323.15 K, 14820 kPa, x1 = 0.1484	925
323.15 K, 15220 kPa, x1 = 0.086	873
323.15 K, 15250 kPa, x1 = 0.118	911
323.15 K, 15510 kPa, x1 = 0.1484	930
323.15 K, 15660 kPa, x1 = 0.086	878
323.15 K, 15740 kPa, x1 = 0.118	914
323.15 K, 16130 kPa, x1 = 0.086	883
323.15 K, 16420 kPa, x1 = 0.1484	936
323.15 K, 16430 kPa, x1 = 0.118	920
327.95 K, 8540 kPa, x1 = 0.1484	839
327.95 K, 8840 kPa, x1 = 0.1484	844
327.95 K, 8920 kPa, x1 = 0.118	801
327.95 K, 9150 kPa, x1 = 0.0242	333
327.95 K, 9160 kPa, x1 = 0.118	806
327.95 K, 9180 kPa, x1 = 0.0242	337
327.95 K, 9250 kPa, x1 = 0.0242	344
327.95 K, 9290 kPa, x1 = 0.1484	850
327.95 K, 9320 kPa, x1 = 0.0242	352
327.95 K, 9320 kPa, x1 = 0.086	724
327.95 K, 9400 kPa, x1 = 0.0242	359
327.95 K, 9470 kPa, x1 = 0.0242	369
327.95 K, 9470 kPa, x1 = 0.118	812
327.95 K, 9540 kPa, x1 = 0.0242	378
327.95 K, 9620 kPa, x1 = 0.0242	387
327.95 K, 9690 kPa, x1 = 0.0242	397
327.95 K, 9720 kPa, x1 = 0.086	740
327.95 K, 9750 kPa, x1 = 0.1484	856
327.95 K, 9760 kPa, x1 = 0.118	818
327.95 K, 9770 kPa, x1 = 0.0242	407
327.95 K, 9860 kPa, x1 = 0.0242	418
327.95 K, 9950 kPa, x1 = 0.0242	430
327.95 K, 9990 kPa, x1 = 0.086	750
327.95 K, 10040 kPa, x1 = 0.0242	442
327.95 K, 10120 kPa, x1 = 0.0242	453
327.95 K, 10240 kPa, x1 = 0.118	827
327.95 K, 10240 kPa, x1 = 0.1484	862
327.95 K, 10400 kPa, x1 = 0.086	762
327.95 K, 10740 kPa, x1 = 0.086	772
327.95 K, 10740 kPa, x1 = 0.118	835
327.95 K, 10770 kPa, x1 = 0.1484	868
327.95 K, 11180 kPa, x1 = 0.086	782
327.95 K, 11220 kPa, x1 = 0.118	842
327.95 K, 11260 kPa, x1 = 0.1484	873
327.95 K, 11650 kPa, x1 = 0.086	792
327.95 K, 11720 kPa, x1 = 0.118	849
327.95 K, 11760 kPa, x1 = 0.1484	878
327.95 K, 12200 kPa, x1 = 0.118	855
327.95 K, 12210 kPa, x1 = 0.086	802
327.95 K, 12260 kPa, x1 = 0.1484	883
327.95 K, 12680 kPa, x1 = 0.118	861
327.95 K, 12750 kPa, x1 = 0.086	812
327.95 K, 12800 kPa, x1 = 0.1484	888
327.95 K, 13200 kPa, x1 = 0.086	819
327.95 K, 13310 kPa, x1 = 0.1484	893
327.95 K, 13320 kPa, x1 = 0.118	868
327.95 K, 13680 kPa, x1 = 0.086	826
327.95 K, 13780 kPa, x1 = 0.118	873
327.95 K, 13800 kPa, x1 = 0.1484	897
327.95 K, 14170 kPa, x1 = 0.086	833
327.95 K, 14240 kPa, x1 = 0.1484	901
327.95 K, 14310 kPa, x1 = 0.118	879
327.95 K, 14710 kPa, x1 = 0.086	840
327.95 K, 14780 kPa, x1 = 0.1484	905
327.95 K, 14800 kPa, x1 = 0.118	884
327.95 K, 15160 kPa, x1 = 0.086	846
327.95 K, 15260 kPa, x1 = 0.118	888
327.95 K, 15300 kPa, x1 = 0.1484	909
327.95 K, 15660 kPa, x1 = 0.086	852
327.95 K, 15740 kPa, x1 = 0.118	892
327.95 K, 15860 kPa, x1 = 0.1484	913
327.95 K, 16180 kPa, x1 = 0.086	858
327.95 K, 16330 kPa, x1 = 0.118	897
327.95 K, 16560 kPa, x1 = 0.1484	918
328.15 K, 9640 kPa, x1 = 0.0481	532
328.15 K, 9710 kPa, x1 = 0.0481	543
328.15 K, 9800 kPa, x1 = 0.0481	556
328.15 K, 9910 kPa, x1 = 0.0481	570
328.15 K, 10030 kPa, x1 = 0.0481	585
328.15 K, 10180 kPa, x1 = 0.0481	600
328.15 K, 10340 kPa, x1 = 0.0481	615
328.15 K, 10540 kPa, x1 = 0.0481	632
328.15 K, 10720 kPa, x1 = 0.0481	645
328.15 K, 10940 kPa, x1 = 0.0481	659
328.15 K, 11190 kPa, x1 = 0.0481	673
328.15 K, 11350 kPa, x1 = 0.0481	681
332.85 K, 9040 kPa, x1 = 0.0242	282
332.85 K, 9110 kPa, x1 = 0.0242	287
332.85 K, 9180 kPa, x1 = 0.1484	814
332.85 K, 9200 kPa, x1 = 0.0242	292
332.85 K, 9270 kPa, x1 = 0.0242	298
332.85 K, 9350 kPa, x1 = 0.0242	305
332.85 K, 9430 kPa, x1 = 0.0242	311
332.85 K, 9520 kPa, x1 = 0.0242	318
332.85 K, 9620 kPa, x1 = 0.118	768
332.85 K, 9620 kPa, x1 = 0.1484	821
332.85 K, 9640 kPa, x1 = 0.0242	329
332.85 K, 9720 kPa, x1 = 0.0242	336
332.85 K, 9810 kPa, x1 = 0.0242	344
